Reference: ChEMBL document CHEMBL1145856, “Synthesis and in vitro characterization of 1-(4-aminofurazan-3-yl)-5-dialkylaminomethyl-1H-[1,2,3]triazole-4-carboxylic acid derivatives. A new class of selective GSK-3 inhibitors” (J Med Chem, 2003)

How the values were obtained:
[1] = molecular target: T1, Glycogen synthase kinase-3 beta (Homo sapiens, UniProt P49841)
Description: Inhibitory activity against human glycogen synthase kinase-3beta (GSK3-beta) at 100 uM ATP

[2] = molecular target: T1, Glycogen synthase kinase-3 beta; assay type: functional, cell-based, Cricetulus griseus, CHO
Description: Stimulation of glycogen synthase in CHO cells expressing human insulin receptor

[3] = molecular target: T1, Glycogen synthase kinase-3 beta; assay type: functional, cell-based, Cricetulus griseus, CHO-hIR
[4] = molecular target: Cyclin-dependent kinase 2/cyclin A (Homo sapiens, UniProt P24941); test: Inhibition of Cyclin-dependent kinase 2-cyclin A; assay type: protein-complex assay
[5] = molecular target: T1, Glycogen synthase kinase-3 beta; test: Inhibition of human Glycogen synthase kinase-3 beta (GSK3-beta) at 100 uM ATP

T1 sequence (P49841 whole entry): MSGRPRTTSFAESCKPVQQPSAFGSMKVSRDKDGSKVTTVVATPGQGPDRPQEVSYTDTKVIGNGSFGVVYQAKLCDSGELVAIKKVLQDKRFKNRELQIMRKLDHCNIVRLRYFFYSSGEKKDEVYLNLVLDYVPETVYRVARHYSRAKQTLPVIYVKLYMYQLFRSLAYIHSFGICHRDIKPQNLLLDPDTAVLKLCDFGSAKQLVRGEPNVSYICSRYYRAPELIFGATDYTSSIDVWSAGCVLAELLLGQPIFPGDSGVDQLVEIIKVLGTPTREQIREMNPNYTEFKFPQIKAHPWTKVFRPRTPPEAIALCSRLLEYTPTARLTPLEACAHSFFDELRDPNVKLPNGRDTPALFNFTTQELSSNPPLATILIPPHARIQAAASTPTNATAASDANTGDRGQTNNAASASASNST

Row | IC50 [1] [µM] | Structure (SMILES) | other results
1 | 11.7 | CCN(CC)Cc1c(C(=O)NCCc2ccncc2)nnn1-c1nonc1N | 
2 | 0.24 | Nc1nonc1-n1nnc(-c2n[nH]c(-c3ccncc3)n2)c1CN1CCCC1 | 
3 | 9.3 | Nc1nonc1-n1nnc(C(=O)NCc2ccncc2)c1CN1CCCCC1 | 
4 | 0.41 | CCN(CC)Cc1c(C(=O)N/N=C/c2ccncc2)nnn1-c1nonc1N | 
5 | > 250 | CN(CCc1ccncc1)C(=O)c1nnn(-c2nonc2N)c1CN1CCCCC1 | 
6 | 1.16 | Nc1nonc1-n1nnc(C(=O)NCCc2ccncc2)c1CN1CCCCC1 | EC50 [2]: 19.1 µM; EC50 [3]: 57.5 µM; IC50 [4]: 119 µM
7 | 0.1 | Nc1nonc1-n1nnc(C(=O)N/N=C/c2ccncc2)c1CN1CCCCC1 | EC50 [2]: 2.85 µM; EC50 [3]: 4.54 µM; IC50 [4]: 96 µM
8 | 9.6 | NNC(=O)c1nnn(-c2nonc2N)c1CN1CCCCC1 | 
9 |  | CCN(CC)Cc1c(C(=O)NN)nnn1-c1nonc1N | IC50 [5]: 17 µM
10 | 6.92 | CN(C)Cc1c(-c2n[nH]c(-c3ccncc3)n2)nnn1-c1nonc1N | 
11 | 0.1 | Nc1nonc1-n1nnc(C(=O)N/N=C/c2ccncc2)c1CN1CCCC1 | 
12 | 2.1 | Nc1nonc1-n1nnc(C(=O)NCCc2ccncc2)c1CN1CCCC1 | 
13 | > 250 | CC(C)CNCc1c(C(=O)NCc2ccncc2)nnn1-c1nonc1N | 

Row | Structure (SMILES) | IC50 [1] [µM] | other results
14 | Nc1nonc1-n1nnc(-c2nnc(-c3ccncc3)[nH]2)c1CN1CCCCC1 | 0.28 | EC50 [2]: 1.85 µM; EC50 [3]: 11.1 µM; IC50 [4]: > 250 µM
